Results reported in US5134137A, “Cephalosporin antibiotics” (The Upjohn Company, priority 1990, dated 1992).
Values after ≈ are worked out from the molar mass of the structure shown. Where two headings read alike, the source gives them in different places.

Columns and labels:
Format in all cases: cell-based
Pseudomonas aeruginosa = experiment: MIC, agar dilution, Pseudomonas aeruginosa; conditions: Pseudomonas aeruginosa, ATCC27853; strain ATCC 27853; read-out: MIC
Method: (§1) Stock solution of each test antibiotic compound were prepared to have a concentration of 2 mg. of the test compound per milliliter in sterile water of 0.1M ammonium acetate solution. The amount of each compound used was adjusted for base compound activity as calculated from the purity data for the selected batch of compound.
(§2) The dilution procedure described by Washington and Sutter [Manual of Clinical Microbiology, 3rd, Edit. (Lennett, E. H. et al, Eds.), pp. 453-458 (1980), American Society for Microbiology, Washington, D.C.] was modified so that serial concentrations of 128 to 0.0625 microgram/ml. in sterile water was obtained. Then 1.5 ml. aliquots of these test antibiotic dilution mixtures are added to 13.5 molten (50° C.) Mueller-Hinton agar. Each resulting mixture is poured into 15×100 mm, sterile Petri plates and allowed to dry at room temperature overnight.
(§3) Test bacterial cultures are maintained at -70° C. on glass beads. [See R. J. Yancey, Jr. et al, Amer. Jr. of Vet. Research, 48, No. 7, pp. 1050-1053, (1987)]. At least one bacteria-laden bead per culture is dropped into one ml. of brain heart infusion (BHI) broth for overnight culture at 37° C. in 5% V/V carbon dioxide in air atmosphere.
(§4) On the data of assay, 2 to 8 drops of the bacterial broth cultures are transferred to fresh BHI broth (1 ml.) and the mixture is incubated for 4 to 6 hours at 37° C. in a 5% V/V carbon dioxide in air atmosphere. The resulting cultures are then diluted to match a 0.5 MacFarland standard and further diluted 1:20 V/V with sterile saline solution.
(§5) A 0.001 ml. drop of the resulting mixture, containing approximately 10^3 to 10^4 colony forming units (CFU) of each test bacteria organism, is dispensed onto the surface of the test antibiotic compound test plates with a Steer's type replicator. The resulting innoculated plates are incubated 16 to 18 hours at 37° C. with a carbon dioxide atmosphere.
(§6) Stock solutions of each test antibiotic compound were prepared to have a concentration of 2 mg. of the test compound per milliliter in sterile water of 0.1M ammonium acetate solution. The amount of each compound used was adjusted for base compound activity as calculated from the purity data for the selected batch of compound.
(§7) The dilution procedure described by Washington and Sutter [Manual of Clinical Microbiology, 3rd, Edit. (Lennett, E. H. et al, Eds.), pp. 453-458 (1980), American Society for Microbiology, Washington, D.C.] was modified so that serial concentrations of 128 to 0.0625 microgram/ml. in sterile water was obtained. Then 1.5 ml. aliquots of these test antibiotic dilution mixtures are added to 13.5 molten (50° C.) Mueller-Hinton agar. Each resulting mixture is poured into 15×100 mm. sterile Petri plates and allowed to dry at room temperature overnight.
(§8) The dilution procedure described by Washington and Sutter [Manual of Clinical Microbiology, 3rd, Edit. (Lennett, E. H. et al, Eds.), pp. 453-458 (1980), American Society for Microbiology. Washington, D.C.] was modified so that serial concentrations of 128 to 0.0625 microgram/ml. in sterile water was obtained. Then 1.5 ml. aliquots of these test antibiotic dilution mixtures are added to 13.5 molten (50° C.) Mueller-Hinton agar. Each resulting mixture is poured into 15×100 mm. sterile Petri plates and allowed to dry at room temperature overnight.
(§9) Test bacterial culture are maintained at -70° C. on glass beads. [See R. J. Yancey, Jr. et al, Amer. Jr. of Vet. Research, 48, No. 7, pp. 1050-1053, (1987)]. At least one bacteria-laden bead per culture is dropped into one ml. of brain heart infusion (BHI) broth for overnight culture at 37° C. in 5% V/V carbon dioxide in air atmosphere.
(§10) On the day of assay, 2 to 8 drops of the bacterial broth cultures are transferred to fresh BHI broth (1 ml.) and the mixture is incubated for 4 to 6 hours at 37° C. in a 5% V/V carbon dioxide in air atmosphere. […]

Pasteurella multocida = experiment: MIC, agar dilution, Pasteurella multocida; conditions: Pasteurella multocida; strain UC9581; read-out: MIC
Method: as §1, §2, §3, §4, §5, §6, §7, §8, §9, §10

[1] = test system: Bordetella bronchiseptica; experiment: MIC, agar dilution, Bordetella bronchiseptica; conditions: Bordetella bronchiseptica; strain UC6313; read-out: MIC
Method: as §1, §2, §3, §4, §5, §6, §7, §8, §9, §10

Streptococcus bovis = experiment: MIC, agar dilution, Streptococcus bovis; conditions: Streptococcus equinus; strain UC6281; read-out: MIC
Method: as §1, §2, §3, §4, §5, §6, §7, §8, §9, §10

Streptococcus agalactiae = experiment: MIC, agar dilution, Streptococcus agalactiae; conditions: Streptococcus agalactiae, read-out: MIC
Method: as §1, §2, §3, §4, §5, §6, §7, §8, §9, §10

Escherichia coli = experiment: MIC, agar dilution, Escherichia coli; conditions: Escherichia coli, read-out: MIC
Method: as §1, §2, §3, §4, §5, §6, §7, §8, §9, §10

Micrococcus luteus = experiment: MIC, agar dilution, Micrococcus luteus; conditions: Micrococcus luteus; strain UC130; read-out: MIC
Method: as §1, §2, §3, §4, §5, §6, §7, §8, §9, §10

Enterococcus faecium = experiment: MIC, agar dilution, Enterococcus faecium; conditions: Enterococcus faecium; strain UC241; read-out: MIC
Method: as §6, §2, §3, §4, §5, §1, §7, §8, §9, §10

Staphylococcus aureus = experiment: MIC, agar dilution, Staphylococcus aureus; conditions: Staphylococcus aureus, read-out: MIC
Method: as §1, §2, §3, §4, §5, §6, §7, §8, §9, §10

[2] = test system: Streptococcus dysgalactiae; experiment: MIC, agar dilution, Streptococcus dysgalactiae; conditions: Streptococcus dysgalactiae; strain UC251; read-out: MIC
Method: as §1, §2, §3, §4, §5, §6, §7, §8, §9, §10

Salmonella choleraesuis = experiment: MIC, agar dilution, Salmonella choleraesuis; conditions: Salmonella enterica, read-out: MIC
Method: as §1, §2, §3, §4, §5, §6, §7, §8, §9, §10

Streptococcus suis = experiment: MIC, agar dilution, Streptococcus suis; conditions: Streptococcus suis; strain 650-2; read-out: MIC
Method: as §1, §2, §3, §4, §5, §6, §7, §8, §9, §10

Enterococcus faecalis = experiment: MIC, agar dilution, Enterococcus faecalis; conditions: Enterococcus faecalis; strain UC694; read-out: MIC
Method: as §6, §2, §3, §4, §5, §1, §7, §8, §9, §10

Streptococcus uberis = experiment: MIC, agar dilution, Streptococcus uberis; conditions: Streptococcus uberis, read-out: MIC
Method: as §1, §2, §3, §4, §5, §6, §7, §8, §9, §10

Salmonella typhimurium = experiment: MIC, agar dilution, Salmonella typhimurium; conditions: Salmonella enterica, read-out: MIC
Method: as §1, §2, §3, §4, §5, §6, §7, §8, §9, §10

Corynebacterium pyogenes = experiment: MIC, agar dilution, Corynebacterium pyogenes; conditions: strain 213-2; read-out: MIC
Method: as §1, §2, §3, §4, §5, §6, §7, §8, §9, §10

Pasteurella hemolytica = experiment: MIC (minimum inhibitory concentration), agar dilution, Pasteurella hemolytica; conditions: Pasteurella, read-out: MIC
Method: as §1, §2, §3, §4, §5, §6, §7, §8, §9, §10

[3] = CHOLERAESUIS / UC6073, strain UC6073
[4] = CHOLERAESUIS / UC6077, strain UC6077
[5] = TYPHIMURIUM / UC6162, strain UC6162
[6] = TYPHIMURIUM / UC6164, strain UC6164

Row | SMILES | MIC (Pseudomonas aeruginosa) [µg/mL] | MIC (Pasteurella multocida) [µg/mL] | MIC [1] [µg/mL] | MIC (Streptococcus bovis) [µg/mL] | MIC (Streptococcus agalactiae; strain UC3947) [µg/mL] | MIC (Streptococcus agalactiae; strain UC6892) [µg/mL] | MIC (Escherichia coli; strain UC3784) [µg/mL] | MIC (Escherichia coli; strain UC6720) [µg/mL] | MIC (Escherichia coli; strain UC9670) [µg/mL] | MIC (Micrococcus luteus) [µg/mL] | MIC (Enterococcus faecium) [µg/mL] | MIC (Staphylococcus aureus; strain UC6093) [µg/mL] | MIC (Staphylococcus aureus; strain UC6097) [µg/mL] | MIC (Staphylococcus aureus; strain UC9203) [µg/mL] | MIC [2] [µg/mL] | MIC (Salmonella choleraesuis; [3]) [µg/mL] | MIC (Salmonella choleraesuis; [4]) [µg/mL] | MIC (Streptococcus suis) [µg/mL] | MIC (Enterococcus faecalis) [µg/mL] | MIC (Streptococcus uberis; strain UC3946) [µg/mL] | further results
1 | CCCCSSCC1=C(C(=O)O)N2C(=O)[C@@H](NC(=O)/C(=N\OC)c3csc(N)n3)[C@H]2SC1 [Example 12] | > 32 | 8 (≈ 15.5 µM) | > 32 | > 32 | 2 (≈ 3.86 µM) | > 32 | 8 (≈ 15.5 µM) | 16 (≈ 30.9 µM) | 8 (≈ 15.5 µM) | ≤ 0.06 | > 32 | 4 (≈ 7.73 µM) | 4 (≈ 7.73 µM) | 4 (≈ 7.73 µM) | ≤ 0.06 | 32 (≈ 61.8 µM) | 32 (≈ 61.8 µM) | ≤ 0.06 | > 32 | 0.13 (≈ 0.251 µM) | MIC (Streptococcus uberis; strain UC6159): 8 µg/mL (≈ 15.5 µM); MIC (Salmonella typhimurium; [5]): 16 µg/mL (≈ 30.9 µM); MIC (Salmonella typhimurium; [6]): 32 µg/mL (≈ 61.8 µM); MIC (Corynebacterium pyogenes): 32 µg/mL (≈ 61.8 µM); MIC (Pasteurella hemolytica; strain UC6531): 0.5 µg/mL (≈ 0.966 µM); MIC (Pasteurella hemolytica; strain UC6532): 0.5 µg/mL (≈ 0.966 µM); MIC (Pasteurella hemolytica; strain UC9582): 0.5 µg/mL (≈ 0.966 µM)
2 | CCC(C)SSCC1=C(C(=O)O)N2C(=O)[C@@H](NC(=O)/C(=N\OC)c3csc(N)n3)[C@H]2SC1 (stereo partly drawn) [Example 13] | > 32 | 8 (≈ 15.5 µM) | > 32 | > 32 | 2 (≈ 3.86 µM) | > 32 | 8 (≈ 15.5 µM) | 16 (≈ 30.9 µM) | 8 (≈ 15.5 µM) | 0.13 (≈ 0.251 µM) | > 32 | 4 (≈ 7.73 µM) | 2 (≈ 3.86 µM) | 2 (≈ 3.86 µM) | ≤ 0.06 | 32 (≈ 61.8 µM) | > 32 | ≤ 0.06 | > 32 | 0.13 (≈ 0.251 µM) | MIC (Streptococcus uberis; strain UC6159): 8 µg/mL (≈ 15.5 µM); MIC (Salmonella typhimurium; [5]): 16 µg/mL (≈ 30.9 µM); MIC (Salmonella typhimurium; [6]): 16 µg/mL (≈ 30.9 µM); MIC (Corynebacterium pyogenes): 32 µg/mL (≈ 61.8 µM); MIC (Pasteurella hemolytica; strain UC6531): 1 µg/mL (≈ 1.93 µM); MIC (Pasteurella hemolytica; strain UC6532): 0.13 µg/mL (≈ 0.251 µM); MIC (Pasteurella hemolytica; strain UC9582): 0.25 µg/mL (≈ 0.483 µM)
